Data set [1] deals with HCT116 cells. The data set can be described thus: Western blotting of acetylated histones. Format: cell-based. As to conditions: for Accumulation of acetylated histones: HCT116, 1 h, TSA 0.2 μM, others 2 μM (FIG. 1A); for Inhibition of cellular HDACs (H4K5ac, H3K18ac): HCT116, 0.5 μM, 24 h (FIG. 1B). Background: Immunoblotting shows a protein as a band on a membrane.
Data set [2] relates to HCT116 cells. The data set can be described thus: H3K18ac after 6 h pulse treatment and drug washout. Format: cell-based. As to conditions: 6 h exposure then washout.
Data set [3] relates to MDA-MB-231 cells. The data set can be described thus: Microarray gene expression profiling with Ingenuity Pathway Analysis. Format: cell-based. Conditions: 1 μM, 24 h.
The test system of data set [4] is MDA-MB-231 cells. As to conditions: UF010 at 1 μM.
Another data set deals with HDAC1 (Homo sapiens (Human), UniProt Q13547). The data set can be described thus: In vitro HDAC1 inhibition assay of HTS hits (HDAC/II-Glo reagents). Format: biochemical.
Data set [5] deals with MDA-MB-231 cells. Nature of the data set: Quantitative real-time PCR of CDKN1A (p21). Format: cell-based. For orientation: Quantitative PCR measures a nucleic acid by following its amplification.
The test system of data set [6] is NCI-60 panel of cancer cell lines. The data set can be described thus: NCI-60 panel screen. Format: cell-based.
Data set [7] is described as follows: Cell-based assays, comparison with entinostat. The source says: Chem Biol. 2015: in press.].
The subject of data set [8] is MDA-MB-231 cells. Nature of the data set: Cell cycle analysis by FACS. It is filed as cell-based. As to conditions: 24 h, dose-dependent. (In flow cytometry, cells or beads pass a laser one at a time.)
In the next data set the test system is HCT116 and A549 cells. The data set can be described thus: Western blotting of acetylated non-histone proteins. Format: cell-based. As to conditions: for α-tubulin acetylation: 1 h, TSA 0.2 μM, UF010 2 μM.
Data set [9] deals with Ad-MLP-Luc reporter in HCT116 cell line. The data set can be described thus: Ad-MLP-Luc luciferase reporter activation assay. Format: cell-based. Conditions: HCT116, compared to Ad-E2-Luc reporter.
The subject of another data set is HepG2 cells. Nature of the data set: Viability assay, with or without HDAC shRNA. It is filed as cell-based. As to conditions: HepG2, 96 h (FIG. 4A).
For data set [10] the following is noted: 50 mg/kg dosed orally, ref (4); cited from earlier work.

Sequence of HDAC1 (Q13547 whole entry): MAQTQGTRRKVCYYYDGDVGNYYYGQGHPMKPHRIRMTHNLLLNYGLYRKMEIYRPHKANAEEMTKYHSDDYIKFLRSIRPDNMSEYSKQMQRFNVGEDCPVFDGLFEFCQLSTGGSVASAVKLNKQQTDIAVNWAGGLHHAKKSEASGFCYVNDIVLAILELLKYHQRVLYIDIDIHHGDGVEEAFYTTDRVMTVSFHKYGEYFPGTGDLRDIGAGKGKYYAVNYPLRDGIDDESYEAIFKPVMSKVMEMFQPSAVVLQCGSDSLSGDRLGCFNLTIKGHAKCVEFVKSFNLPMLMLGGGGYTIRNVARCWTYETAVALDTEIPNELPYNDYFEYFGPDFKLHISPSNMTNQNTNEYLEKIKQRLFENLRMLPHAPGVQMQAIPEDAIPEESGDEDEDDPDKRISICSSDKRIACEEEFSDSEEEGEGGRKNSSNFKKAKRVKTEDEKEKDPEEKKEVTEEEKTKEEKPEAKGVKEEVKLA

On to `Nc1ccccc1NC(=O)c1ccc(CNC(=O)OCc2cccnc2)cc1` [MS-275, entinostat], for which the “Accumulation of acetylated histones” value with HCT116 cells [1] was “only slightly induced acetylation at several sites but failed to induce acetylation at most sites”. In addition, in the data set with HCT116 cells [2], the “Persistence of induced histone acetylation (H3K18ac) after drug addition” value (from here on “Persistence”) is on record as “at least 48 h” and the “Time to induction of histone acetylation (H3K18ac)” value (from here on “Time to induction”) came to 18 h.

In the case of `CCCCNNC(=O)c1ccc(Br)cc1` [UF010, 4-bromo-N′-butylbenzohydrazide], in the data set with MDA-MB-231 cells [3], the “Predicated activation state, Biological Functions: Cell cycle, Cell cycle progression” value is on record as “Suppressed”; the “Predicated activation state, Biological Functions: Cell death and survival, Apoptosis” value is on record as “Activated”; the “Predicated activation state, Biological Functions: Cell death and survival, Cell survival” value is “Suppressed”; the “Predicated activation state, Biological Functions: Cell death and survival, Necrosis” value is “Activated”. Besides, in the data set on MDA-MB-231 cells [3], the “Predicated activation state, Biological Functions: Cell growth and proliferation, Proliferation of cells” value is on record as “Suppressed”; the “Predicated activation state, Biological Functions: DNA replication, recombination and repair, Repair of DNA” value is on record as “Suppressed”; the “Predicated activation state, Biological Functions: Gene expression, Transcription of RNA” value was “Suppressed”; the “Predicated activation state, Upstream Regulators: Butyric acid” value was “Activated”. Also, in the data set with MDA-MB-231 cells [3], the “Predicated activation state, Upstream Regulators: Cisplatin” value is given as “Activated”; the “Predicated activation state, Upstream Regulators: ERK1/2” value was “Activated”; the “Predicated activation state, Upstream Regulators: HDAC1” value is “Suppressed”; the “Predicated activation state, Upstream Regulators: HDAC2” value was “Suppressed”. In the data set on MDA-MB-231 cells [3], the “Predicated activation state, Upstream Regulators: KRAS” value is reported as “Suppressed”; the “Predicated activation state, Upstream Regulators: MYCN” value is recorded as “Suppressed”; the “Predicated activation state, Upstream Regulators: Myc” value is “Suppressed”; the “Predicated activation state, Upstream Regulators: Rb1” value is “Activated”. Besides, in the data set on MDA-MB-231 cells [3], the “Predicated activation state, Upstream Regulators: Romidepsin” value is “Activated”; the “Predicated activation state, Upstream Regulators: TP53” value is “Activated”; the “Predicated activation state, Upstream Regulators: Tributyrin (butyrate)” value is on record as “Activated”; the “Predicated activation state, Upstream Regulators: Trichostatin A” value is “Activated”. The “Predicated activation state, Upstream Regulators: fulvestrant” value in the data set on MDA-MB-231 cells [3] was “Activated”. Moreover, in the data set with MDA-MB-231 cells [4], the “Cell migration to the denuded areas” value is recorded as “markedly slowed migration”. Besides, on HDAC1, the “HDAC1 inhibition in vitro, potency” value was < 10 µM. Further, the “CDKN1A (p21) expression by qPCR” value in the data set with MDA-MB-231 cells [5] was “activation of CDKNA encoding p21 was also confirmed”. In addition, in data set [6], the “Inhibition of proliferation, NCI-60 panel” value is recorded as “inhibited proliferation of all tested cell lines”. In the data set on HCT116 cells [1], the “Inhibition of cellular HDACs (H4K5ac, H3K18ac)” value was “consistently displayed potent inhibition of cellular HDACs” and the “Accumulation of acetylated histones” value is “consistently induced the accumulation of acetylated histones at all sites examined”. Besides, the “Potency relative to entinostat in cell-based assays” value in data set [7] is “about 5 fold”. The Cell cycle effect entry with MDA-MB-231 cells [8] is “mainly blocked G1/S transition”. In addition, in the data set on HCT116 and A549 cells (2 μM, after exposure to etoposide 10 μM), the “Accumulation of acetylated p53” value was “induced accumulation of acetylated p53”. For the same compound, the p53 stabilization entry in the data set on HCT116 and A549 cells (2 μM, with or without etoposide treatment) is recorded as “notably stabilized p53”. The α-tubulin acetylation entry in the data set with HCT116 and A549 cells is “little to no effect”. Moreover, in the data set on HCT116 cells [2], the “Mode of HDAC inhibition (on/off)” value was “fast-on but slow-off inhibitor”, the “Persistence” value is reported as “up to 96 h” and the “Time to induction” value is ≤ 6 h.

In the case of `CCCCNNC(=O)c1ccc(N(C)C)cc1` [RLS2-131, N′-butyl-4-(dimethylamino)benzohydrazide], the “Inhibition of cellular HDACs (H4K5ac, H3K18ac)” value in the data set on HCT116 cells [1] is “consistently displayed potent inhibition of cellular HDACs”.

With `C/C=C1\NC(=O)[C@H]2CSSCC/C=C/[C@H](CC(=O)N[C@H](C(C)C)C(=O)N2)OC(=O)[C@H](C(C)C)NC1=O` [Romidepsin, romidepsin], the Ad-MLP-Luc reporter activity entry in data set [9] is “dramatically increased in a dose-dependent manner”. In addition, in the data set with HCT116 cells [2], the “Persistence” value was “up to 24 h” and the “Time to induction” value was “quickly induced acetylation”.

In the case of `O=C(CCCCCCC(=O)Nc1ccccc1)NO` [SAHA, vorinostat, reference compound], the “HDAC1 inhibition in vitro, potency” value at HDAC1 was < 10 µM.

With `CCCCNNC(=O)c1ccccc1` [RLS2-125, N′-butylbenzohydrazide], the “Growth inhibition for HepG2” value in the data set with HepG2 cells is given as “little to no growth inhibition”.

`CC(/C=C/C(=O)NO)=C\[C@@H](C)C(=O)c1ccc(N(C)C)cc1` [TSA, Trichostatin A, reference compound]: in the data set on HCT116 cells [1], the “Accumulation of acetylated histones” value was “strongly induced acetylation at some sites but weakly at other sites”. Moreover, the α-tubulin acetylation result in the data set on HCT116 and A549 cells is “dramatically increased α-tubulin acetylation”.

Take `Nc1ccccc1NC(=O)CCCCCC(=O)Nc1ccccc1` [Compound 4b]: in [10], the time to peak (Tmax) (commonly the time at which the peak concentration occurs) was 15 min.

The values above are taken from patent publication US11731934B2, “HDAC inhibitor compounds and methods of treatment” (University of Florida Research Foundation, Inc., priority 2014, dated 2023).
